Measurements from ChEMBL document CHEMBL3108668, “Antitumor activity of jujuboside B and the underlying mechanism via induction of apoptosis and autophagy” (J Nat Prod, 2014).
Activity calls are given as the source filed them. The rule behind the calls is not given here.

Legend:
AGS [1] = test: Induction of apoptosis in human AGS cells assessed as increase in LC3-2 level at 50 uM after 24 hrs by Western blotting analysis in presence of bafilomycin A1; type: functional, cell-based
AGS [2] = test: Induction of apoptosis in human AGS cells assessed as increase in FasL level at 100 uM after 24 hrs by Western blotting analysis in presence of bafilomycin A1; type: functional, cell-based
AGS [3] = test: Induction of apoptosis in human AGS cells assessed as increase in pJNK level at 100 uM after 24 hrs by Western blotting analysis in presence of bafilomycin A1; type: functional, cell-based
AGS [4] = test: Induction of apoptosis in human AGS cells assessed as increase in pp38 level at 100 uM after 24 hrs by Western blotting analysis in presence of bafilomycin A1; type: functional, cell-based
AGS [5] = test: Induction of apoptosis in human AGS cells assessed as reduction of caspase8 activation at 100 uM after 24 hrs by Western blotting analysis in presence of bafilomycin A1; type: functional, cell-based
AGS [6] = test: Cell cycle arrest in human AGS cells assessed as accumulation at sub G1 phase at 100 uM after 24 hrs by propidium iodide staining-based flow cytometry in presence of bafilomycin A1; type: functional
AGS [7] = test: Induction of autophagy in human AGS cells assessed as increase in LC3-2 level at 50 uM after 24 hrs by Western blotting analysis; type: functional, cell-based
HCT-116 [8] = test: Induction of autophagy in human HCT116 cells assessed as massive vacuole formation at 50 uM after 24 hrs by acridine orange staining-based fluorescence microscopy; type: functional, cell-based
HCT-116 [9] = test: Induction of autophagy in human HCT116 cells assessed as massive vacuole formation at 50 uM after 24 hrs by fluorescence microscopy; type: functional, cell-based
AGS [10] = test: Induction of autophagy in human AGS cells assessed as massive vacuole formation at 50 uM after 24 hrs by fluorescence microscopy; type: functional, cell-based
AGS [11] = test: Induction of apoptosis in human AGS cells assessed as reduction of FasL level at 100 uM after 24 hrs by Western blotting analysis in presence of SB202190; type: functional, cell-based
AGS [12] = test: Induction of apoptosis in human AGS cells assessed as reduction of caspase8 activation at 100 uM after 24 hrs by Western blotting analysis in presence of SP600125; type: functional, cell-based
AGS [13] = test: Induction of apoptosis in human AGS cells assessed as reduction of caspase8 activation at 100 uM after 24 hrs by Western blotting analysis in presence of SB202190; type: functional, cell-based
AGS [14] = test: Induction of apoptosis in human AGS cells assessed as increase in pp38 level at 25 to 150 uM after 24 hrs by Western blotting analysis; type: functional, cell-based
AGS [15] = test: Induction of apoptosis in human AGS cells assessed as procaspase-9 level at 25 to 150 uM after 24 hrs by Western blotting analysis; type: functional, cell-based
AGS [16] = test: Induction of apoptosis in human AGS cells assessed as PARP-1 cleavage after 24 hrs by Western blotting analysis; type: functional, cell-based
AGS [17] = test: Induction of apoptosis in human AGS cells assessed as caspase-3 activation after 24 hrs by Western blotting analysis; type: functional, cell-based
Mus musculus = test: Toxicity in BALB/c nude mouse xenografted with human HCT116 cells assessed as change in body weight at 40 mg/kg, ip administered 3 times a week for 5 weeks; type: organism-based, HCT-116; design: dose 40 mg/kg, route intraperitoneal; conditions: in vivo, 840 h
AGS [18] = test: Cell cycle arrest in human AGS cells assessed as accumulation at sub G1 phase at 200 uM after 24 hrs by propidium iodide staining-based flow cytometry; type: functional
AGS [19] = test: Cell cycle arrest in human AGS cells assessed as accumulation at sub G1 phase at 150 uM after 24 hrs by propidium iodide staining-based flow cytometry; type: functional
AGS [20] = test: Cell cycle arrest in human AGS cells assessed as accumulation at sub G1 phase at 100 uM after 24 hrs by propidium iodide staining-based flow cytometry; type: functional
HCT-116 [21] = test: Induction of apoptosis in human HCT116 cells assessed as necrotic cells at 50 uM after 24 hrs by annexin V-FITC/propidium iodide staining-based flow cytometry (reference value: 0.68%); type: functional
HCT-116 [22] = test: Induction of apoptosis in human HCT116 cells assessed as necrotic cells at 25 uM after 24 hrs by annexin V-FITC/propidium iodide staining-based flow cytometry (reference value: 0.68%); type: functional
HCT-116 [23] = test: Induction of apoptosis in human HCT116 cells assessed as late apoptotic cells at 100 uM after 24 hrs by annexin V-FITC/propidium iodide staining-based flow cytometry (reference value: 2.71%); type: functional
HCT-116 [24] = test: Induction of apoptosis in human HCT116 cells assessed as early apoptotic cells at 25 uM after 24 hrs by annexin V-FITC/propidium iodide staining-based flow cytometry (reference value: 3.61%); type: functional
AGS [25] = test: Induction of apoptosis in human AGS cells assessed as necrotic cells at 150 uM after 24 hrs by annexin V-FITC/propidium iodide staining-based flow cytometry (reference value: 0.12%); type: functional
AGS [26] = test: Induction of apoptosis in human AGS cells assessed as necrotic cells at 100 uM after 24 hrs by annexin V-FITC/propidium iodide staining-based flow cytometry (reference value: 0.12%); type: functional
AGS [27] = test: Induction of apoptosis in human AGS cells assessed as necrotic cells at 50 uM after 24 hrs by annexin V-FITC/propidium iodide staining-based flow cytometry (reference value: 0.12%); type: functional
AGS [28] = test: Induction of apoptosis in human AGS cells assessed as late apoptotic cells at 150 uM after 24 hrs by annexin V-FITC/propidium iodide staining-based flow cytometry (reference value: 7.3%); type: functional
AGS [29] = test: Induction of apoptosis in human AGS cells assessed as late apoptotic cells at 100 uM after 24 hrs by annexin V-FITC/propidium iodide staining-based flow cytometry (reference value: 7.3%); type: functional
AGS [30] = test: Induction of apoptosis in human AGS cells assessed as late apoptotic cells at 50 uM after 24 hrs by annexin V-FITC/propidium iodide staining-based flow cytometry (reference value: 7.3%); type: functional
AGS [31] = test: Induction of apoptosis in human AGS cells assessed as early apoptotic cells at 50 uM after 24 hrs by annexin V-FITC/propidium iodide staining-based flow cytometry (reference value: 6.6%); type: functional
HCT-116 [32] = test: Induction of apoptosis in human HCT116 cells assessed as formation of apoptotic bodies at >100 uM after 24 hrs by acridine orange staining-based microscopy; type: functional, cell-based
HCT-116 [33] = test: Induction of apoptosis in human HCT116 cells assessed as membrane blebbing at >100 uM after 24 hrs by acridine orange staining-based microscopy; type: functional, cell-based
HCT-116 [34] = test: Induction of apoptosis in human HCT116 cells assessed as cell shrinkage at >100 uM after 24 hrs by acridine orange staining-based microscopy; type: functional
HCT-116 [35] = test: Induction of apoptosis in human HCT116 cells assessed as cell rounding at >100 uM after 24 hrs by acridine orange staining-based microscopy; type: functional
AGS [36] = test: Induction of apoptosis in human AGS cells assessed as formation of apoptotic bodies at >100 uM after 24 hrs by acridine orange staining-based microscopy; type: functional, cell-based
AGS [37] = test: Cytotoxicity against human AGS cells after 24 hrs by MTT assay; type: functional, cell-based

CC(C)=C[C@H]1C[C@](C)(O)[C@@H]2[C@H]3CC[C@@H]4[C@@]5(C)CC[C@H](O[C@@H]6OC[C@H](O)[C@H](O[C@@H]7O[C@H](CO)[C@@H](O)[C@H](O)[C@H]7O[C@@H]7OC[C@@H](O)[C@H](O)[C@H]7O)[C@H]6O[C@@H]6O[C@@H](C)[C@H](O)[C@@H](O)[C@H]6O)C(C)(C)[C@@H]5CC[C@@]4(C)[C@@]34CO[C@@]2(C4)O1
Activity (AGS [1]): Active | Activity (AGS [2]): Active | Activity (AGS [3]): Active | Activity (AGS [4]): Active | Activity (AGS [5]): Active | Activity (AGS [6]): Active | Activity (AGS [7]): Active | Activity (HCT-116 [8]): Active | Activity (HCT-116 [9]): Active | Activity (AGS [10]): Active | Activity (AGS [11]): inactive | Activity (AGS [12]): inactive | Activity (AGS [13]): inactive | Activity (AGS [14]): Active | Activity (AGS [15]): inactive | Activity (AGS [16]): Dose-dependent effect | Activity (AGS [17]): Dose-dependent effect | Activity (Mus musculus): Non-toxic | Activity (AGS [18]): 49.65% | Activity (AGS [19]): 21.73% | Activity (AGS [20]): 8.29% | Activity (HCT-116 [21]): 0.5% | Activity (HCT-116 [22]): 0.67% | Activity (HCT-116 [23]): 9.74% | Activity (HCT-116 [24]): 2.64% | Activity (AGS [25]): 1.57% | Activity (AGS [26]): 1.06% | Activity (AGS [27]): 0.53% | Activity (AGS [28]): 12.12% | Activity (AGS [29]): 12.44% | Activity (AGS [30]): 7.05% | Activity (AGS [31]): 8.73% | Activity (HCT-116 [32]): Active | Activity (HCT-116 [33]): Active | Activity (HCT-116 [34]): Active | Activity (HCT-116 [35]): Active | Activity (AGS [36]): Active | Activity (AGS [37]): Dose-dependent effect | IC50 (AGS [37]): 107 µM
